Converted amounts (≈) assume the structure as drawn.
Legend:
[1] = test system: M. morcanii (1), E. cloacae (2) and S. marcescens (2); assay: In vitro MIC, two-fold serial agar dilution in Mueller-Hinton agar, GnII strains; assay type: cell-based; conditions: Enterobacter cloacae, read-out: Geometric mean of MIC, GnII
Experimental: The in vitro antibacterial activity of the parent cephalosporanic acids of Formula I wherein R^4 is hydrogen is shown in Table 1 in terms of geometric mean of the Minimum Inhibitory Concentrations (MIC's) which were determined by the two-fold serial agar dilution method in Mueller-Hinton agar against 25 strains of test organisms in five groups.
GnII: M. morcanii (1), E. cloacae (2) and S. marcescens (2)

[2] = test system: clinically important pathogens; assay: Comparison of in vitro antibacterial activities of Compound 29 and FK-482 (Table 6); assay type: cell-based; conditions: Thirty-seven organisms
Source text: Table 6 is a comparison of the in vitro antibacterial activities of Compound 29 and the vinyl homolog thereof FK-482 against clinically important pathogens. Thirty-seven organisms were more than 4-fold more susceptible to Compound 29 than to FK-482. FK-482 has the following formula and is described by Takaya, et al. in U.S. Pat. No. 4,559,334 patented Dec. 17, 1985 (filed Oct. 20, 1983). [drawing 14]
Mueller-Hinton agar Inoculum size; 10^6 cells/ml

C/C=C\C1=C(C(=O)O)N2C(=O)[C@@H](NC(=O)/C(=N\O)c3csc(N)n3)[C@H]2SC1 [Compound 29, 7β-[(Z)-2-(2-aminothiazol-4-yl)-2-(hydroxyimino)acetamido]-3-[(Z)-prop-1-en-1-yl]-3-cephem-4-carboxylic acid]
MIC [1]: 6.3 µg/mL (≈ 15.4 µM)
more susceptible to Compound 29 than to FK-482 [2]: more than 4 fold
